Measurements published in patent EP0606463B1, “NEUROMEDIN B RECEPTOR ANTAGONISTS” (The Administrators of The Tulane Educational Fund, priority 1992, dated 1994).
Where a SMILES comes first, the peptide text is derived from it. Bridges are numbered along the chain shown (N, C = ends). Where no end group is shown, it is not given here. [ ]: non-standard residue; d: D form. 2Nal = N[C@@H](Cc1ccc2ccccc2c1)C(=O)O; d2Nal = N[C@H](Cc1ccc2ccccc2c1)C(=O)O; Lys(Et2) = CCN(CC)CCCC[C@H](N)C(=O)O

Legend:
rat NMB receptor = target: T1, rat NMB receptor (Rattus norvegicus, UniProt P24053); assay: Binding of 125I-[D-Tyr0]NMB to NMB-R transfected BALB 3T3 cells; conditions: for fold by which cyclo SS-octa was more potent than the analog: inhibition of ^125I-[Tyr^0]NMB binding to NMB-R transfected cells; for decrease in NMB receptor affinity compared with #1: structure-function comparison of Table 1 values
T1 construct: a full length NMB-preferring bombesin receptor clone generated from rat esophagus; expressed in transfected cells; host or cells: BALB 3T3 cells
T1 sequence (P24053 1-390): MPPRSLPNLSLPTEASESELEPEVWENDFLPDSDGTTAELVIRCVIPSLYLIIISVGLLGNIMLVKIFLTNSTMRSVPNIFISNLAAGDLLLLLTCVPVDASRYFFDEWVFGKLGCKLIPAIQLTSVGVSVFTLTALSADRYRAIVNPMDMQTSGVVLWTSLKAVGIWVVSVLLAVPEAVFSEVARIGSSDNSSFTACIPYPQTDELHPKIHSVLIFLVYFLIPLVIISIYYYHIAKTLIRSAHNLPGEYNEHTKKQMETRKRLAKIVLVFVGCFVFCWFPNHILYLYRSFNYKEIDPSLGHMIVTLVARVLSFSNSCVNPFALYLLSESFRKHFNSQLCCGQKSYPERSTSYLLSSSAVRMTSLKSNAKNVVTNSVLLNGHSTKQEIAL
Description: (§1) Cells were passaged every 3-4 days at confluence, using 0.1% trypsin in 1 mM EDTA. Rat glioblastoma C-6 tumor cells were maintained similarly and were passaged weekly at confluence. Both cell lines were cultured at 37°C in a 5% CO2 atmosphere. Rat AR 42J pancreatic acinar cells were cultured in Dulbecco's modified Eagle's medium (DMEM) without antibiotics and supplemented with 10% (vol/vol) fetal calf serum. The incubation atmosphere consisted of 10% CO2-90% humidified air at 37°C.

GRP Receptor = target: T2, GRP Receptor (Rattus norvegicus, UniProt P52500); assay: Amylase release from rat pancreatic acini; assay type: cell-based; conditions: for Rat Pancreatic Acini Amylase Release Alone (10µM): analog 10 µM alone, no-additive control 4 ± 1; for Rat Pancreatic Acini Amylase Release Plus Bn(0.3 nM): analog 10 µM plus Bn 0.3 nM, Bn without analog 15 ± 1
T2 construct: from tissue; host or cells: dispersed pancreatic acini
T2 sequence (P52500 whole entry): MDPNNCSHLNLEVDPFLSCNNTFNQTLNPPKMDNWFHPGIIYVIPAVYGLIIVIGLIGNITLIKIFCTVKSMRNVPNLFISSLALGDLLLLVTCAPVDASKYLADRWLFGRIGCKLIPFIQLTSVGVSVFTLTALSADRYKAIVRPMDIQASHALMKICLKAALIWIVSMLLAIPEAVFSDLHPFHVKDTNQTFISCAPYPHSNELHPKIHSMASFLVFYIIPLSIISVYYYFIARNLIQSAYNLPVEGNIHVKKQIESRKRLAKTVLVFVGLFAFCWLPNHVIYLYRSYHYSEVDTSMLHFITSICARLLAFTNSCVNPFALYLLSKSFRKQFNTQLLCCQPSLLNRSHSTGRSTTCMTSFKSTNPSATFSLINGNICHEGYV

[1] = system: endothelin-1-simulated increases in [^3H]IP; assay: Endothelin-1-stimulated [3H]IP in C-6 glioblastoma cells; assay type: cell-based, rat
Description: (§2) Total phosphoinositides in C-6 cells and in NMB-R transfected cells were determined as described previously, with minor modifications [Benya, R. V. et al. Mol. Pharmacol. 42:1058 (1992); and Wang, L-H. et al. Biochem. J. 286:641 (1992)]. Cells were grown to confluence in 24-well plates and then loaded with 100 µCi/ml myo-[2-^3H]inositol in Dulbecco's modified essential medium with 2% fetal bovine serum at 37°C for 48 hrs. Cells were washed and incubated in phosphoinositide buffer (standard buffer additionally containing 10 mM LiCl, 20 mM HEPES, 2 mM CaCl2, 2% BSA, and 1.2 mM MgSO4) for 15 min and then for 60 min at 37°C with agonists at various concentrations or with 3 nM NMB (a half-maximal effective concentration) and possible antagonists at different concentrations. Reactions were halted using ice-cold 1% HCl in methanol, and the inositol phosphates (IP) were isolated as described previously [Bologna, M. et al. Cancer 63:1714 (1989); and Endo, T. et al. J. Endocrinol. 131:313 (1991)]. Briefly, after loading of the anion exchange column, free [^3H]glycerophosphorylinositol was removed by washing with 5 mM disodium tetraborate in 60 mM sodium formate. Total [^3H]inositol phosphates were then eluted using 100 mM formic acid in 1.0 M ammonium formate as described previously [Benya, R. V. et al. Mol. Pharmacol. 42:1058 (1992); and Wang, L-H. et al. Biochem. J. 286:641 (1992)].

NMB Receptor = target: T3, NMB Receptor (Rattus norvegicus, UniProt P24053); assay: [3H]inositol phosphates (IP) in NMB-R transfected cells; assay type: cell-based; conditions: for NMB-R Transfected Cells [^3H]IP Alone (10 µ M): analog 10 µM alone, no-additive control 13 ± 3; for NMB-R Transfected Cells [^3H]IP Plus NMB (3 nM): analog 10 µM plus NMB 3 nM, NMB without analog 186 ± 58; for effect on NMB-stimulated increase in [^3H]IP: NMB-R transfected cells, 3 nM NMB, peptide 10 µM
T3 construct: a full length NMB-preferring bombesin receptor clone generated from rat esophagus; expressed in transfected cells; host or cells: BALB 3T3 cells
T3 sequence (P24053 1-390): T1 sequence (P24053 1-390)
Description: as §1, with “As described previously [Wada, E., et al. Neuron 6:421 (1991)], BALB 3T3 cells expressing a stably transfected rat NMB receptor (NMB-R transfected cells) were obtained using calcium phosphate precipitation of a full length NMB-preferring bombesin receptor clone generated from rat esophagus and subcloned into a modified version of the pCD2 plasmid. Cells” for “Cells”
as §2

[2] = target: T4, NMB receptors on C-6 glioblastoma cells (Rattus norvegicus, UniProt P24053); assay: NMB-stimulated [3H]IP in C-6 glioblastoma cells; assay type: cell-based
T4 construct: endogenous in cells; host or cells: rat glioblastoma C-6 cells
T4 sequence (P24053 1-390): T1 sequence (P24053 1-390)
Description: as §2, with “for 60 min at 37°C with agonists at various concentrations or with 3 nM NMB (a half-maximal effective concentration) and possible antagonists at different concentrations.” left out

[3] = target: T5, NMB receptors on rat olfactory bulb membranes (Rattus norvegicus, UniProt P24053); assay: NMB membrane receptor assay (rat olfactory bulb membranes); assay type: binding
T5 construct: Membranes were prepared from rat olfactory bulb (NMB membrane receptor assay); from tissue; host or cells: rat olfactory bulb membranes
T5 sequence (P24053 1-390): T1 sequence (P24053 1-390)

Compound	fold by which cyclo SS-octa was more potent than the analog (rat NMB receptor) [fold]	decrease in NMB receptor affinity compared with #1 (rat NMB receptor)	Rat Pancreatic Acini Amylase Release Alone (10µM) (GRP Receptor) [% total]	Rat Pancreatic Acini Amylase Release Plus Bn(0.3 nM) (GRP Receptor) [% total]	[^3H]IP, Peptide Added ET-1 (0.1 nM) ([1]; C-6 glioblastoma cells, analog 10 µM plus ET-1 0.1 nM) [dpm x 10^3]	effect on endothelin-1-simulated increases in [^3H]IP in C-6 cells ([1]; Table 3)	NMB-R Transfected Cells [^3H]IP Alone (10 µ M) (NMB Receptor) [dpm x 10^3]	NMB-R Transfected Cells [^3H]IP Plus NMB (3 nM) (NMB Receptor) [dpm x 10^3]	[^3H]IP, Peptide Added NMB (10 nM) ([2]; C-6 glioblastoma cells, analog 10 µM plus NMB 10 nM) [dpm x 10^3]	[^3H]IP, Peptide Added None ([2]; C-6 glioblastoma cells, analog 10 µM, no agonist, control 7.2±1.0) [dpm x 10^3]	effect on NMB-stimulated increases in [^3H]IP in C-6 glioblastoma cells ([2]; Table 3)	fold greater affinity for NMB receptors than mu opioid receptors ([3]; rat olfactory bulb versus rat forebrain membranes (Table 4)) [fold]	effect on NMB-stimulated increase in [^3H]IP (NMB Receptor)	fold higher affinity for NMB receptors than somatostatin receptors ([3]; rat olfactory bulb versus AR 42J membranes (Table 4)) [fold]	fold greater affinity for the NMB than the GRP receptors (rat NMB receptor; NMB-R transfected cells versus GRP receptors on rat pancreatic acini) [fold]	[^3H]IP, ET-1 (0.1 nM) Alone ([1]; C-6 glioblastoma cells, agonist without analog, basal 7.2±1.0) [dpm x 10^3]
C[C@@H](O)[C@H](NC(=O)[C@@H]1CSSC[C@H](NC(=O)[C@H](N)Cc2ccc3ccccc3c2)C(=O)N[C@@H](Cc2ccc(O)cc2)C(=O)N[C@H](Cc2c[nH]c3ccccc23)C(=O)N[C@@H](CCCCN)C(=O)N[C@@H](Cc2ccc3ccccc3c2)C(=O)N1)C(N)=O [Analog #2, [Nal^6,Thr^8]-cyclo SS-octa]	4	4 fold	5 ± 1	13 ± 1	11.2±1.9	had no effect	11 ± 2	39 ± 7	14.3 ± 4.2	7.3±1.2	inhibited	–	–	–	–	–
CC(C)[C@@H]1NC(=O)[C@H](CCCCN)NC(=O)[C@@H](Cc2c[nH]c3ccccc23)NC(=O)[C@H](Cc2ccc(O)cc2)NC(=O)[C@@H](NC(=O)[C@H](N)Cc2ccc3ccccc3c2)CSSC[C@H](C(=O)N[C@@H](Cc2ccc3ccccc3c2)C(N)=O)NC1=O [Analog #11, [D-Cys^7]-cyclo SS-octa] (H-[d2Nal]CY[dW]KV[dC][2Nal]-NH2; disulfide 2-7; N-terminus assumed)	6	5 fold	2 ± 1	14 ± 1	–	–	10 ± 1	7 ± 4	–	–	–	> 50	completely inhibited	–	–	–
CC(C)[C@@H]1NC(=O)[C@H](Cc2c[nH]cn2)NC(=O)[C@@H](Cc2c[nH]c3ccccc23)NC(=O)[C@H](Cc2ccc(O)cc2)NC(=O)[C@@H](NC(=O)[C@H](N)Cc2ccc3ccccc3c2)CSSC[C@@H](C(=O)N[C@@H](Cc2ccc3ccccc3c2)C(N)=O)NC1=O [Analog #14, [His^5]-cyclo SS-octa] (H-[d2Nal]CY[dW]HVC[2Nal]-NH2; disulfide 2-7; N-terminus assumed)	45	50 fold	2 ± 1	13 ± 1	–	–	8 ± 1	97 ± 7	–	–	–	–	–	3	–	–
CCN(CC)CCCC[C@@H]1NC(=O)[C@@H](Cc2c[nH]c3ccccc23)NC(=O)[C@H](Cc2ccc(O)cc2)NC(=O)[C@@H](NC(=O)[C@H](N)Cc2ccccc2)CSSC[C@@H](C(=O)N[C@@H](Cc2ccc3ccccc3c2)C(N)=O)NC(=O)[C@H]([C@@H](C)O)NC1=O [Analog #16, [D-Phe^1, Lys(diEt)^5, Thr^6] cyclo SS-octa] (H-[dF]CY[dW][Lys(Et2)]TC[2Nal]-NH2; disulfide 2-7; N-terminus assumed)	18	–	5 ± 1	12 ± 1	–	–	11 ± 2	73 ± 15	–	–	–	–	–	–	–	–
CC(C)[C@@H]1NC(=O)[C@H](CCCCN)NC(=O)[C@@H](Cc2ccc3ccccc3c2)NC(=O)[C@H](Cc2ccc(O)cc2)NC(=O)[C@@H](NC(=O)[C@H](N)Cc2ccc3ccccc3c2)CSSC[C@@H](C(=O)N[C@@H](Cc2ccc3ccccc3c2)C(N)=O)NC1=O [Analog #17, [D-Nal^4]-cyclo SS-octa] (H-[d2Nal]CY[d2Nal]KVC[2Nal]-NH2; disulfide 2-7; N-terminus assumed)	2	almost no effect on affinity	4 ± 2	19 ± 1	–	–	12 ± 4	15 ± 2	–	–	–	–	completely inhibited	–	> 100	–
endothelin 1 (CSCSSLMDKECVYFCHLDIIW; disulfide 1-15, 3-11; ends not checked; UniProt P05305 53-73, looked up) [ET-1, agonist from Peninsula Laboratories, reference compound]	–	–	–	–	–	–	–	–	–	–	–	–	–	–	–	11.0±2.1
